The source of these data is a melting point compilation (Tetko et al.; mined from patent text by program, amines drawn as free bases though some values may be those of a salt).

Molecules are shown by their SMILES. A value given as a limit tells only on which side of the number the result lay.

The melting point is the temperature, or range, at which the solid turns liquid.

Turning to `OCc1nc2ccc(Cl)nc2[nH]1`, the melting point was in the range of 224 to 226 °C.
On to `O=C(N[C@@H](Cc1ccccc1)C(=O)Oc1cc(Cl)c(Cl)cc1Cl)OCc1ccccc1`, for which the melting point lay within 139 to 140 °C.
Take `Cc1cccc(CC(Nc2ccc3c(c2)C(=O)OC3)C(=O)NC(C#N)CCCCc2cccc(C(=O)O)c2)c1` (stereo unspecified): the melting point lay in the range of 91 to 94 °C.
Take `CCOC(CNC(=C[N+](=O)[O-])SC)OCC`: the melting point was in the range of 73 to 73.5 °C.
In the case of `CCOC(=O)C1CCN(c2nc(C)nc3c2C(C)C(=O)N3c2c(C)cc(Br)cc2C)CC1` (stereo unspecified), the melting point was 159 to 161 °C.
`O=C(c1ccccc1)N1CCc2cc(CCl)ccc21` returned a melting point of 108 to 110 °C.
To `Nc1c(Br)cc(Br)c(O)c1Br` belongs 119 °C; to `Cc1cccc2c1nc(COc1ccc(Cl)cc1)n2CCC(Cc1ccccc1)C(=O)O` (stereo unspecified), 190 to 192 °C; to `CC(C)(C)OC(=O)NC1CNC(=O)C12CC2` (stereo unspecified), 178 to 181 °C.
In turn, `CCN(CC)CC(O)Cn1ccnc1[N+](=O)[O-]` (stereo unspecified) showed a melting point of 92 to 93 °C.
As to `CCN1c2ncccc2C(=O)Nc2c1nc(N(C)C)c(Br)c2C`, the melting point lay within 184 to 186 °C.
As to `O=C(O)c1ccc(/C=C/c2ccc3c(=O)[nH]ncc3c2)cc1`, the melting point is more than 345 °C.
The compound `CCCCCCCC(=O)OCOC1=C(C(=O)Nc2ccccn2)N(C)S(=O)(=O)c2ccccc21` had a melting point of 98 to 99 °C.
To `C=CCCCCS(=O)(=O)C[C@@H](C)C(=O)O` belongs 51 to 54 °C; to `Cc1cc2c(cc1C)-n1nnnc1C=C(c1ccc(-n3c(C)nc4cnccc43)cc1)N2`, 315 °C.
`CC(=O)Nc1ccc(OCC(O)CCCl)cc1` (stereo unspecified) gave a melting point of 124 to 127 °C.
`CC(=O)NC[C@H]1CN(c2ccc(N3CCN(C(=O)CCC(=O)c4ccc(CN(C)C)cc4)CC3)c(F)c2)C(=O)O1` came in with a melting point of 190 to 192 °C.
To `O=C(Nc1ccc2[nH]cnc2c1)C(=O)N1CCC(Cc2ccccc2)CC1` belongs 85 to 87 °C; to `CCCCCCCCCCOc1cccc(Nc2nnc(Cc3ccncc3)c3ccccc23)c1`, 116 to 119 °C.
The compound `N#CC(=C(Nc1cc(C(F)(F)F)cc(C(F)(F)F)c1)NC1CCC1)S(=O)(=O)c1ccc(Cl)cc1` displayed a melting point of 190 to 193 °C.
Take `CCCC(=O)c1cnc2c(C)cccc2c1Nc1ccccc1C`: the melting point lay in the range of 110 to 112 °C.
To `COc1ccc(C=CS(=O)(=O)N2C(=O)CCC2OC(C)C)cc1` (stereo unspecified) belongs 101 to 103 °C; to `N#CCOc1cc2c(cc1-c1ccc(F)cc1)NC(=O)CC(c1cccc(-n3ccnc3)c1)=N2`, 164 °C.
For `O=C(Cc1cc(F)cc(F)c1)N[C@@H](Cc1cc2ccccc2[nH]1)C(=O)N[C@@H]1C(=O)Nc2ccccc2S[C@@H]1c1ccccc1`, the melting point is 85 to 90 °C.
To `CCCc1nc2c(N)nc3cccnc3c2n1Cc1cc(-c2ccc(F)cc2)no1` belongs 238 to 239 °C; to `COc1cc(CCC2OC(=O)NC2=O)ccc1OCc1nc(-c2ccccc2)oc1C` (stereo unspecified), 194 to 195 °C; to `COc1ccccc1C1CSc2ccccc2NC1=O` (stereo unspecified), 219 °C.
`CC(C)(C)C(=O)NCc1cccs1` yielded a melting point of 64 to 65 °C.
As to `Cc1cc([C@H]2CN3C(=O)N(c4cc(Cl)nc(Cl)c4)C(=O)[C@]3(Cc3ccc(OC(F)(F)F)cc3)C2)c(C)[nH]1`, the melting point was 112 °C.
To `COC(=O)C(Cc1ccccc1)Oc1ccc2cc(-c3cnc(-c4cn(C)c5ccccc45)o3)ccc2c1` (stereo unspecified) belongs 58 to 61 °C.
To `CCCCCCCCCCS(=O)(=O)Nc1cc(C(=O)Nc2ccccc2)ccc1OC` belongs 160 to 161 °C; to `COC(=O)c1ccccc1N(c1ccccc1)C1(c2ccc(N(C)C)cc2)OC(=O)c2ccccc21` (stereo unspecified), 92.5 to 102 °C.
Next, `O=C(CCCC12CCC(=O)N1C(=O)CC2)OCc1ccccc1`: 102 to 105 °C.
In the case of `CCOC(=O)c1ccc(NC(=O)NC2CN(C(=O)c3cccs3)c3ccc(C)cc3N(CC(=O)c3cccs3)C2=O)cc1` (stereo unspecified), the melting point amounted to 244 °C.
`CS(=O)c1ccc(-n2cnc3ccc(-c4nnc(SCc5cccc(C#N)c5)o4)cc32)cc1` (stereo unspecified) gave a melting point of 152 to 153 °C.
For `N#Cc1c(-c2ccc(OCc3ccccc3)cc2)n(Cc2ccc(OCCCl)cc2)c2cccc(OCc3ccccc3)c12`, the melting point is 160 to 162 °C.
As for `CCOC(=O)CCc1coc2c(O[Si](C)(C)C(C)(C)C)c3ccccc3c(C)c12`, the melting point was 92.4 to 93.5 °C.
On to `O=[N+]([O-])c1ccc(-c2ccc(I)cc2C(F)(F)F)c(C(F)(F)F)c1`, for which the melting point is 67 to 68 °C.
Next, `O=c1ccc(-c2cccc(F)c2)n[nH]1`: 207 to 209 °C.
The compound `CCCc1c(OCC2(O)CCCCC2Sc2ccc(C(=O)CCC(=O)O)cc2)ccc(C(C)=O)c1O` (stereo unspecified) had a melting point of 55 to 57 °C.
To `CC(C)(C)c1cc(C(=O)O)c(Cl)c(C(=O)O)c1` belongs 250 °C; to `COC(=O)C(NC(=O)C(NC(C)=O)(OC)C(Br)Br)=C(C)C` (stereo unspecified), 150 to 151 °C; to `COc1nc2c(c(OC)n1)C(c1ccc(F)c(OC)c1)C1=C(COC1=O)N2` (stereo unspecified), 267 to 270 °C.
Take `CC(C)(C)[C@H]1N(c2ccc(C#N)c3ccccc23)C(=O)[C@@H]2C[C@@H](OCc3ccccc3)CN21`: the melting point lay in the range of 155 to 157 °C.
In turn, `O=C1c2c(O)cccc2C(C(=O)C2CCCCC2)c2cccc(O)c21` yielded a melting point of 220 °C.
Next, `CCOC(=O)C(C)O/N=C(\C(=O)O)c1csc(N)n1` (stereo unspecified): 166 °C; `CCC(=O)[C@@H](NC(=O)OCc1ccccc1)C(C)C`: 49 to 50 °C.
Consider `CC(=O)Oc1cccc(C=Cc2ccc3ccccc3n2)c1`, for which the melting point was 86 to 87 °C.
Take `COc1cc(C=Cc2nc3c(s2)NCCCC3)ccc1O`: the melting point is 175 to 178 °C.
The compound `C#Cc1ncn2c1CN(C)C(=O)c1c(Cl)cccc1-2` came in with a melting point of 194 to 195 °C.
As for `O=S(=O)(Nc1ncnc(OCCO)c1-c1cccc(Cl)c1)c1ccc(Cl)cc1`, the melting point was in the range of 178 to 180 °C.
To `CCOC(=O)C1NC(C(=O)O)c2[nH]c3cccc(OCc4cccc(Cl)c4)c3c2C1COC` (stereo unspecified) belongs 178 to 179 °C.
`COc1ccccc1Cn1c(-c2cc(OC)c(OC)c(OC)c2)nc2ccccc21` returned a melting point of 136 °C.
As for `COc1cccc2c1C(=O)N1CCC[C@H]1C(=O)N2`, the melting point lay in the range of 247 to 251 °C.
For the compound `c1cc(Cc2cc3ccccc3[nH]2)cc(-c2cc3ccccc3[nH]2)c1`, the melting point was in the range of 193 to 194 °C.
Compound `CSc1nnc(Cc2ccccc2S(N)(=O)=O)s1` showed a melting point of 175 to 178 °C.
Compound `Cc1occc(=O)c1OC(=O)c1ccccc1` came in with a melting point of 106 to 110 °C.
Consider `O=S(=O)(Nc1ccc(Cl)cc1C(=NOc1ccc(Cl)cc1)c1ccccc1)C(F)(F)F`, for which the melting point was 86 to 87 °C.
On to `N#CCCSc1ccc(Cl)cc1`, for which the melting point fell in the range of 53 to 54 °C.
To `O=C1CC(c2ccccc2)CC(=O)C1C(=O)c1ccc(Cl)cc1[N+](=O)[O-]` (stereo unspecified) belongs 144 to 145 °C; to `COc1cc(OCc2ccccn2)ccc1/C=C/c1cc(/C=C/c2ccc(OCc3ccccn3)cc2OC)[nH]n1`, 195 to 197 °C.
